From ChEMBL document CHEMBL5214887, “Dispirotripiperazine-core compounds, their biological activity with a focus on broad antiviral property, and perspectives in drug design (mini-review)” (Eur J Med Chem, 2021)

Key:
Human alphaherpesvirus 1 [1] = assay: Antiviral activity against HSV-1 assessed as viral growth inhibition; assay type: functional, organism-based
[2] = Toxicity in mouse assessed as lethal dose at ip as single dose; assay type: organism-based; conditions: in vivo
[3] = […] in herpetic encephalitis mouse model assessed as reduction in mortality at 250 mg/kg,po bid for 5 days; assay type: organism-based; parameters: scale not given: the % may be the effect or the level left; conditions: in vivo, 120 h, time 5 day
[4] = test system: Human immunodeficiency virus; assay: Antiviral activity against HIV assessed as viral growth inhibition; assay type: functional, organism-based; conditions: Human immunodeficiency virus 1
[5] = test system: Respiratory syncytial virus; assay: Antiviral activity against RSV assessed as viral growth inhibition; assay type: functional, organism-based; conditions: human respiratory syncytial virus
[6] = test system: Human papillomavirus type 16; assay: Antiviral activity against HPV16 infected in human HEK293T cells assessed as viral growth inhibition incubated for 72 hrs by green fluorescent protein based method; assay type: functional, organism-based; conditions: Human papillomavirus 16, HEK-293T
[7] = Antiviral activity against HPV18 infected in human HEK293T cells assessed as viral growth inhibition incubated for 72 hrs by green fluorescent protein based method; assay type: functional, cell-based; conditions: human papillomavirus 18, HEK-293T
Deltapapillomavirus 4 = assay: Antiviral activity against BPV1 infected in human HEK293T cells assessed as viral growth inhibition incubated for 72 hrs by green fluorescent protein based method; assay type: functional, organism-based; conditions: Deltapapillomavirus 4, HEK-293T
Human betaherpesvirus 5 [8] = assay: Antiviral activity against ganciclovir sensitive HCMV infected in human HELF cells assessed as viral growth inhibition incubated for 8 days; assay type: functional, organism-based; conditions: Human betaherpesvirus 5, HELF, 192 h
Human alphaherpesvirus 1 [9] = assay: Antiviral activity against acyclovir resistant HSV-1 infected in African green monkey GMK-AH-1 cells assessed as viral growth inhibition incubated for 73 hrs; assay type: functional, organism-based; conditions: Human alphaherpesvirus 1, 73 h
[10] = test system: Human immunodeficiency virus 1; assay: Antiviral activity against HIV-1 assessed as viral growth inhibition; assay type: functional, organism-based
Lyssavirus rabies = assay: Antiviral activity against radiolabeled Rabies virus infected in bovine MDBK cell at 80 ug/ml incubated for 4 hrs by attachment assay based liquid scintillation counting analysis; assay type: functional; conditions: dose 80 µg/ml
Human alphaherpesvirus 2 = assay: Antiviral activity against HSV-2 infected in African green monkey GMK-AH-1 cells assessed as viral growth inhibition incubated for 73 hrs; assay type: functional, organism-based; conditions: Human alphaherpesvirus 2, 73 h
Human betaherpesvirus 5 [11] = assay: Antiviral activity against ganciclovir resistant HCMV infected in human HELF cells assessed as viral growth inhibition incubated for 8 days; assay type: functional, organism-based; conditions: Human betaherpesvirus 5, HELF, 192 h
Human alphaherpesvirus 1 [12] = assay: Antiviral activity against HSV-1 infected in African green monkey GMK-AH-1 cells assessed as viral growth inhibition incubated for 73 hrs by crystal violet staining assay; assay type: functional, organism-based; conditions: Human alphaherpesvirus 1, 73 h

In the case of `Cc1nc(N2CC[N+]3(CCC[N+]4(CCNCC4)CC3)CC2)c([N+](=O)[O-])c(N2CC[N+]3(CCC[N+]4(CCNCC4)CC3)CC2)n1`, the IC50 (Human alphaherpesvirus 1 [1]) is reported as 1120 nM.
In the case of `O=C(CCBr)N1CC[N+]2(CC1)CC[N+]1(CCN(C(=O)CCBr)CC1)CC2.[Cl-].[Cl-]` [DIBROSPIDIUM CHLORIDE], the LD50 [2] is reported as 1920 mg/kg, the Activity [3] is reported as 35% and the IC50 (Human alphaherpesvirus 1 [1]) is reported as 66100 nM.
With `Cc1nc(N2CCC[N+]3(CC2)CC[N+]2(CCCNCC2)CC3)c([N+](=O)[O-])c(N2CCC[N+]3(CC2)CC[N+]2(CCCNCC2)CC3)n1` (configuration not stated) the IC50 [4] was 4000 nM, the IC50 [5] was > 100000 nM and the IC50 (Human alphaherpesvirus 1 [1]) was 1970 nM.
`OC(CCl)CN1CC[N+]2(CC1)CC[N+]1(CCN(CC(O)CCl)CC1)CC2.[Cl-].[Cl-]` (configuration not stated) [PROSPIDIUM CHLORIDE] gave an LD50 [2] of 100 mg/kg and an IC50 (Human alphaherpesvirus 1 [1]) of 62500 nM.
Molecule `O=C(CCCl)N1CC[N+]2(CC1)CC[N+]1(CCN(C(=O)CCCl)CC1)CC2.[Cl-].[Cl-]` has an Activity [3] of 35%.
For `Cl.Cl.[O-][n+]1onc2ncnc(N3CC[N+]4(CC3)CC[N+]3(CCN(c5ncnc6no[n+]([O-])c56)CC3)CC4)c21`, the IC50 [6] was 1400 nM, the IC50 [7] was 700 nM and the IC50 (Deltapapillomavirus 4) was 2600 nM. For the same molecule, the IC50 [4] was 1400 nM, the IC50 (Human betaherpesvirus 5 [8]) was 150 nM and the IC50 (Human alphaherpesvirus 1 [9]) was 8100 nM. The IC50 [10] was 150000 nM, the Activity (Lyssavirus rabies) was 95% and the IC50 (Human alphaherpesvirus 2) was 10200 nM. It also gave an IC50 (Human betaherpesvirus 5 [11]) of 150 nM and an IC50 [5] of 7500 nM.
In the case of `Cc1nc(N2CC[N+]3(CC2)CC[N+]2(CCNCC2)CC3)c([N+](=O)[O-])c(N2CC[N+]3(CC2)CC[N+]2(CCNCC2)CC3)n1`, the IC50 (Human alphaherpesvirus 1 [12]) is reported as 1480 nM.
